Patent US11179452B2, “Antigen specific multi epitope vaccines” (priority 2006, dated 2021)
No end group written: not given here.

Experiments:
Assay type in all cases: cell-based, human
PBL [1] = test: Proliferation of PBL, DC indirect presentation (peptide-pulsed autologous DC); conditions: for Optimal dose via DC: optimal dose required for PBL activation; for Optimal dose via DC / Peak of Proliferation (Hours) via DC: average of 5 experiments; for Optimal dose via DC / IS (SI of the peptides as indicated in Table 7): six donors; for Peak of Proliferation (Hours) via DC: visual inspection by light microscopy daily during 5 days; for IS (SI of the peptides as indicated in Table 7): one out of five experiments
Procedure: (§1) Human PBMC were separated from buffy coat samples of naive donors using Ficoll UNI-SEPmaxi tube. Separated cells were suspended in RPMI medium supplemented with 10% FCS, L-Glutamine, Sodium Pyruvate, MEM-EAGLE non-essential amino-acids, HEPES and Gentamycin Sulphate (Bet-Haemek Industries, IL) and cultivated for 4 h at 37° C. in a culture dish (Corning 150 mm×25 mm). Adherent cells were collected and cultured for 7 days in serum free DCCM-1 medium supplemented with L-Glutamine, huIL-4 (1000 IU/ml) (Cytolab IL) and GM-CSF-80 ug/ml (Cytolab IL). On day seven floating cells were collected and loaded with 50 ug/ml of examined peptide for 18 h at 37° C.
(§2) Proliferation analysis was conducted in three different methods. In all three methods, plates were cultured for 3-5 days under visual control and then 0.5 […]Cu/well of 3[H] (Amersham) was added for additional culture of to 18 h at 37° C. In the last step, plates were harvested and the radioactive counts were measured in a □ counter. • 1. DC indirect presentation: In the first method, 100 µl of 2×10^6 thawed PBL were placed in U-shape Bottom 96 well plate (Nunc) with RPMI medium supplemented with 5% H AB serum, L-Glutamine, Sodium Pyruvate, MEM-EAGLE non-essential amino-acids, HEPES and Gentamycin. At the next stage 100 µl of 25×10^4 peptide-pulsed DC were added to each three wells of PBL and underwent proliferation analysis as described above. • 2. PBL direct presentation: In the 2nd method, 100 µl of 2×10^6 PBL were placed in Flat Bottom 96 well plates (Corning) and stimulated with different concentrations (0.05 ug/ml-2 ug/ml) of peptides. In the next step the cells underwent proliferation analysis as described above. • 3. PBMC direct presentation: In third method PNMC were used under similar conditions as described for the second method.
In the first set of experiments, the 21mer ImMucin, its different 9mer epitopes and other control epitopes (Table 3) were evaluated in proliferation assays with the aim of finding their optimal mode of presentation, stimulated dose as well as their peak of activity (time wise).
To evaluate the most efficient method for priming of PBLs with the different peptides, the following methods were compared:
a. In-direct presentation of the peptide via Autologues-pulsed DC
(§3) Five experiments were performed according to the protocol described in material and methods with buffy-coat enriched PBLs obtained from six different naive donors (obtained from the Israeli blood bank).

PBL [2] = test: Proliferation of PBL, direct presentation of peptide without APC; conditions: for Optimal dose Direct no APC: optimal dose required for PBL activation, six donors; for Optimal dose Direct no APC / Peak of Proliferation (Hours) Direct no APC: average of 5 experiments; for Peak of Proliferation (Hours) Direct no APC: visual inspection daily during 5 days
Procedure: In all three methods, plates were cultured for 3-5 days under visual control and then 0.5 □Cu/well of 3[H] (Amersham) was added for additional culture of to 18 h at 37° C. […] DC indirect presentation: In the first method, 100 µl of 2×10^6 thawed PBL were placed in U-shape Bottom 96 well plate (Nunc) with RPMI medium supplemented with 5% H AB serum, L-Glutamine, Sodium Pyruvate, MEM-EAGLE non-essential amino-acids, HEPES and Gentamycin. At the next stage 100 µl of 25×10^4 peptide-pulsed DC were added to each three wells of PBL and underwent proliferation analysis as described above. • 2. PBL direct presentation: In the 2nd method, 100 µl of 2×10^6 PBL were placed in Flat Bottom 96 well plates (Corning) and stimulated with different concentrations (0.05 ug/ml-2 ug/ml) of peptides. In the next step the cells underwent proliferation analysis as described above. • 3. PBMC direct presentation: In third method PNMC were used under similar conditions as described for the second method.
Direct presentation of peptides to PBL without any APC

PBMC = test: Proliferation, direct presentation of peptide via PBMC (monocytes); conditions: for PBL Index of stimulation (SI) via PBMC: naive donors, representative of 5 experiments; for Optimal dose via PBMC: optimal dose required for PBL activation, six donors; for Optimal dose via PBMC / Peak of Proliferation (Hours) via PBMC: average of 5 experiments; for Peak of Proliferation (Hours) via PBMC: visual inspection daily during 5 days
Procedure: as §2
b. Direct presentation of the peptides via PBMC i.e. monocytes
as §3

[3] = system: lymphocytes from naive donors; test: Proliferation assay, kinetics of lymphocyte activation as summarised in text (presentation mode not stated); conditions: summary of five experiments
Procedure: as §2
A different parameter for assessing the properties of ImMucin and the other VXL-peptide epitopes is by analyzing the time until a maximal peak of activity occurs and the optimal dose for maximal stimulation. Maximal peak of PBL activation is determined when <50% of the PBLs appear in clumps. In these experiments, the kinetic (time) in the proliferation of lymphocytes from the six naive donors stimulated at a fix dose of 0.05-1 ug/ml by ImMucin and other VXL-Peptides, was observed.

PBL [4] = test: ELISA of cytokine secretion by PBL stimulated once with peptide-pulsed DC; conditions: peptide DC ratio 16:1, one out of five experiments, six donors
Procedure: as §1
(§4) Cytokine release was studied during the culture of stimulated T-cells. The evaluated samples were collected from the T cell culture medium on day 2, 3, and 5 and stored until use at −20° C.
(§5) […] of the selected capture antibody (e.g. anti-Hu IFN-Gamma, or anti-Hu TNF-alfa or anti IL-2) were added to each well at the final concentration of 5 μg/ml in PBS. Plates were incubated for 2 h at R.T. or over night at 4° C. Next, […] of blocking solution were added for an incubation of 2 h at R.T. […] of evaluated samples were added in duplicate into 2 wells for 2 hours at RT. After 2 h of incubation at R.T plates were washed λ4 times in washing solution. In the next step, a Biotin-conjugated detection antibody (relevant to coated antibody) was added at a final concentration of 10 μg/ml in total volume of 100 μl for 1 h at R.T. Finally, 100 μl/well working dilution (1:10000 in Blocker solution) of Streptavidin-HRP were added to each well and incubated for 1 h at R.T.
(§6) Plates were washed λ6 times with PBS-Tween (0.4%) and 100 μl/well of TMB/E Solution (CHEMICON, Catalog #ES001) was added. The plates were then exposed until blue color appeared in the wells of the positive control and no color was detected in the blank wells. To stop the color reaction, 50 μl/well of 10% of Sulfuric acid was added. The plates were counted in ELISA-Reader using a 450 nm filter.

[5] = system: ImMucin specific T-cell subpopulation; test: Proliferation of the ImMucin-specific T-cell subpopulation after three stimulations; conditions: one out of two experiments, four donors
Description: (§7) Thawed PBLs underwent 1st stimulation with ImMucin pulsed Autologues DC at a ratio of 20:1 and cultured for 7 days in dedicated T cell Medium. T cell medium contained RPMI medium supplemented with 10% FCS, L-Glutamine, Sodium Pyruvate, MEM-EAGLE non-essential amino-acids, HEPES and Gentamycin Sulphate (Bet-Haemek Industries, IL) as well as with 50 IU/ml of recombinant IL-7 (Cytolab IL). For the second stimulation, PBL were transferred to adherent autologues ImMucin-pulsed PBMC and cultured for additional 5 days in T cell Medium. At the end of the 5 days, medium was partial replaced with fresh medium containing 1 ug/ml of ImMucin and 50 IU/ml IL-2 for a third stimulation of 48 h at 37° C. Following the last stimulation ImMucin T cell line was checked for immune activation properties.
as §2
(§8) For that purpose, an enriched ImMucin-specific T cell subpopulation was produced via repeated stimulation with ImMucin. The specificity of the subpopulation for ImMucin, as well as to the other VXL epitopes, was examined using proliferation assays, cytokine release assays, FACS analysis in which the percentage and type of cells enriched during the enrichment process was analyzed, and using a CTL assay against selected target cells.
(§9) For producing the specific T cell subpopulation PBL were stimulated three times for 7, 5 and 2 days with ImMucin presented via DC and PBMC. Following the 3rd stimulation the cells were evaluated against the different VXL epitopes.

[6] = system: T-Cell specific subpopulation (Clones); test: ELISA of cytokine secretion by the T-cell specific subpopulation (clones) stimulated with peptides; conditions: two experiments, four donors
Description: as §7, §4, §5, §6, §8, §9

[7] = naive donors, CPM sample / CPM control, representative of 5 experiments
[8] = naive donors, representative of 5 experiments
[9] = average of two healthy donors (Table 11)

Sequence | PBL Index of stimulation (SI) via DC (PBL [1]; [7]) | Optimal dose via DC (PBL [1]) | Peak of Proliferation (Hours) via DC (PBL [1]) [h] | PBL Index of stimulation (SI) Direct no APC (PBL [2]; [8]) | Optimal dose Direct no APC (PBL [2]) | Peak of Proliferation (Hours) Direct no APC (PBL [2]) | PBL Index of stimulation (SI) via PBMC (PBMC) | Optimal dose via PBMC (PBMC) [µg/mL] | Peak of Proliferation (Hours) via PBMC (PBMC) [h] | peak of proliferation / maximum stimulation [3] [h] | IFN-gamma (PBL [4]) [ng/mL] | IL-2 (PBL [4]) [ng/mL] | TNF-Alfa (PBL [4]) [ng/mL] | IS (Average) [5] | IS (Range) [5] | IL-2 % of clones [6] [%] | IL-2 Range [6] [ng/mL] | INF-gamma % of clones [6] [%] | TNF-Alfa % of clones [6] [%] | TNF-Alfa Range [6] [ng/mL] | also measured
ALCRWGLLL [VXL-8, reference compound] | 1.75 | 12.5-25 × × 10e6/well | 120 | 0 | No Influence | No proliferation | 1.5 | 0.05 to 1 | 120 | 120 | – | – | – | – | – | – | – | – | – | – | –
STPPVHNV [VXL-6, STPPVHNV, reference compound] | 1.76 | 12.5-25 × × 10e6/well | 120 | 0 | No Influence | No proliferation | 1.53 | 0.05 to 1 | 120 | – | 0 | 0 | 0 | 1.125 | 1-1.25 | 0 | 0 | 8.3 | 50 | 7.56 to 11.4 | PBL Index of stimulation (SI) via DC (PBL [1]; [9]): 1.44; PBL Index of stimulation (SI) Direct no APC (PBL [2]; [9]): 0; INF-gamma Range [6]: 3.25 ng/mL
LLLTVLTVV [VXL-1, LLLTVLTVV] | – | 12.5-25 × × 10e6/well | 120 | 0 | No Influence | No proliferation | 1.59 | 0.05 to 1 | 120 | 120 | 0 | 0 | – | 3.05 | 1.66-4.4 | 83 | – | 33 | 83 | 2.7 to 9.8 | PBL Index of stimulation (SI) via DC (PBL [1]; naive donors, CPM sample / CPM control, representative of 5 experiments, listed as VLX-1): 3.2; IS (SI of the peptides as indicated in Table 7) (PBL [1]): 3.2
LLLLTVLTV [VXL-2, LLLLTVLTV] | 2.2 | 12.5-25 × × 10e6/well | 120 | 0 | No Influence | No proliferation | 1.2 | 0.05 to 1 | 120 | 120 | 0 | 0 | 0 | 3.275 | 1.45-5.1 | 50 | 2.53 to 10.2 | 25 | 83 | 1.9 to 9.4 | IS (SI of the peptides as indicated in Table 7) (PBL [1]): 2.2; INF-gamma Range [6]: 1.4 to 8.9 ng/mL; IL-2 Range ng/ml ([6]; listed as VXL2): high; INF-gamma Range ng/ml ([6]; listed as VXL2): high
